Where two headings read alike, the source gives them in different places. Each block holds one molecule with its values, some of them ahead of it.
Assays:
[1] = molecular target: T1, FGF-1 (flg) receptor tyrosine kinase (Homo sapiens, UniProt P11362); experiment: FGF Receptor Tyrosine Kinase Assay; type: biochemical; conditions: glutamate-tyrosine co-polymer substrate, 50 µM ATP
T1 construct: amplify a fragment of DNA that codes for the intracellular tyrosine kinase domain; made in house; host or cells: SF9 insect cells (baculovirus); crude cell lysate used
T1 sequence (P11362 478-767 limits assumed): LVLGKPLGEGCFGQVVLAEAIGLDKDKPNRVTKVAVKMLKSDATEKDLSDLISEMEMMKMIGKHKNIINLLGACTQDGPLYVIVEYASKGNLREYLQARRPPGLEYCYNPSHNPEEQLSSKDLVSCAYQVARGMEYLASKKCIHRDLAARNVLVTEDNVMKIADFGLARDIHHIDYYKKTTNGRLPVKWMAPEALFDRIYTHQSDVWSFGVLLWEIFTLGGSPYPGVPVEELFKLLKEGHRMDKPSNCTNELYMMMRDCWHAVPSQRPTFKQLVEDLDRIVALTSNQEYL
Procedure: PDGF and FGF Receptor Tyrosine Kinase Assays
PCR primers were designed to amplify a fragment of DNA that codes for the intracellular tyrosine kinase domain. The fragment was inserted into a baculovirus vector, cotransfected with AcMNPV DNA, and the recombinant virus isolated. SF9 insect cells were infected with the virus to overexpress the protein, and the cell lysate was used for the assay. Assays were performed in 96-well plates (100 µL/incubation/well), and conditions were optimized to measure the incorporation of ^32P from γ^32P-ATP into a glutamate-tyrosine co-polymer substrate. Briefly, to each well was added 82.5 µL of incubation buffer containing 25 mM Hepes (pH 7.0), 150 mM NaCl, 0.1% Triton X-100, 0.2 mM PMSF, 0.2 mM Na3VO4, 10 mM MnCl2, and 750 µg/mL of Poly (4:1) glutamate-tyrosine followed by 2.5 µL of inhibitor and 5 µL of enzyme lysate (7.5 µg/µL FGF-TK or 6.0 µg/µL PDGF-TK) to initiate the reaction. […] The reaction was terminated by the addition of 100 µL of 30% trichloroacetic acid (TCA) containing 20 mM sodium pyrophosphate and precipitation of material onto glass fiber mats (Wallac). […] Nonspecific activity was defined as radioactivity retained on the filters following incubation of samples with buffer alone (no enzyme). Specific enzymatic activity (enzyme plus buffer) was defined as total activity minus nonspecific activity. […]

cdk4/D = cdk4/D (Homo sapiens, UniProt P11802); experiment: Cyclin-Dependent Kinase 4 (cdk4) Assay; type: biochemical
Chain of cdk4/D (P11802 whole entry): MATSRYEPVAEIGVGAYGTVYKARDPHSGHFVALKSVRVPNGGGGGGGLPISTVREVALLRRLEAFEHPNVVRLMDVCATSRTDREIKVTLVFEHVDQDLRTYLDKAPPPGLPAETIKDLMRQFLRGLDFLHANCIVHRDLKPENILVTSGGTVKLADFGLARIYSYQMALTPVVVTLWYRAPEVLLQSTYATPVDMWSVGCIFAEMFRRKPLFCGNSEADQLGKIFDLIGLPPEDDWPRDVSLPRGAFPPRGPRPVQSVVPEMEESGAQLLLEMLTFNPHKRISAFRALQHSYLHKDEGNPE
Chain of cdk4/D (P24385 whole entry, further chain): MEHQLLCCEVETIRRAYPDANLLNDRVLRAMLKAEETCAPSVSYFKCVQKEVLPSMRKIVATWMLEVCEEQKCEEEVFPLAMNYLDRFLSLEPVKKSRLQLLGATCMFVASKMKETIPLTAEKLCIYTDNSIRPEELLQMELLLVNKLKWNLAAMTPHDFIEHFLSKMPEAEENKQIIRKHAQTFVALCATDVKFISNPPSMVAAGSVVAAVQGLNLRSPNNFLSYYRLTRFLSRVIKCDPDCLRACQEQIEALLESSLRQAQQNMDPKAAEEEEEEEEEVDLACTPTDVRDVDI
Procedure: A typical assay, for instance, measures inhibitory activity against the cyclin D dependent kinase 4 enzyme (cdk4/D). […] The cdk4 assay was carried out as follows.
Cyclin-Dependent Kinase 4 (cdk4) Assay
Enzyme assays for IC50 determinations (Tables 1 and 2) and kinetic evaluation were performed in 96 well filter plates (Millipore MADVN6550). The total volume was 0.1 mL containing a final concentration of 20 mM TRIS (tris[hydroxymethyl]aminomethane), at pH 7.4, 50 mM NaCl, 1 mM dithiothreitol, 10 mM MgCl2, 25 µM ATP containing 0.25 µCi of [^32P]ATP, 20 ng of cdk4, 1 µg of retinoblastoma, and appropriate dilutions of a compound of the present invention. All components except the ATP were added to the wells, and the plate was placed on a plate mixer for 2 minutes. The reaction was started by adding [^32P]ATP and the plate was incubated at 25°C for 15 minutes. The reaction was terminated by addition of 0.1 mL of 20% trichloroacetic acid (TCA). The plate was kept at 4°C for at least 1 hour to allow the substrate to precipitate. The wells were then washed five times with 0.2 mL of 10% TCA and ^32P incorporation was determined with a beta plate counter (Wallac Inc., Gaithersburg, MD).

c-Src = molecular target: T2, c-Src (Homo sapiens, UniProt P12931); experiment: c-Src protein kinase assay; type: biochemical; conditions: poly GluTyr substrate, 5 µM ATP
T2 construct: made in house; host or cells: baculovirus infected insect cells
T2 sequence (P12931 whole entry): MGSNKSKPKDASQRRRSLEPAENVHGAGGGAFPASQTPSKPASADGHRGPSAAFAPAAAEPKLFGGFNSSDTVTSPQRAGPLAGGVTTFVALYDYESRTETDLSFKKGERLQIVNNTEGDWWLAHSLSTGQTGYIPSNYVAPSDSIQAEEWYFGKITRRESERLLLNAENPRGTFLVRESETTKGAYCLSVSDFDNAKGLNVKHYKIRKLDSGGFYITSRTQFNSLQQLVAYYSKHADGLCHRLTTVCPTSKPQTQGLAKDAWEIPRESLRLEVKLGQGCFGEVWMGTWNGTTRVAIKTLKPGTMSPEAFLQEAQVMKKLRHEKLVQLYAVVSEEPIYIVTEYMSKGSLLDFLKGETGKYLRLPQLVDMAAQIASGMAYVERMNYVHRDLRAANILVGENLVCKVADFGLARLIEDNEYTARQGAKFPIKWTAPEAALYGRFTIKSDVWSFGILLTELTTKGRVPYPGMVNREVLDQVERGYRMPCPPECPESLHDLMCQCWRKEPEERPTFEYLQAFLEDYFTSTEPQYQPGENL
Procedure: The assay was carried out as follows: c-Src kinase was purified from baculovirus infected insect cell lysates using an antipeptide monoclonal antibody directed against the N-terminal amino acids (amino acids 2-17) of c-Src. The antibody, covalently linked to 0.65 µm latex beads, was added to a suspension of insect cell lysis buffer comprised of 150 mM NaCl, 50 mM Tris pH 7.5, 1 mM DTT, 1% NP-40, 2 mM EGTA, 1 mM sodium vanadate, 1 mM PMSF, 1 µg/mL each of leupeptin, pepstatin, and aprotinin. Insect cell lysate containing c-Src protein was incubated with these beads for 3 to 4 hours at 4°C with rotation. At the end of the lysate incubation, the beads were rinsed three times in lysis buffer, resuspended in lysis buffer containing 10% glycerol, and frozen. These latex beads were thawed, rinsed three times in assay buffer (40 mM Tris, pH 7.5, […]) and suspended in the same buffer. In a Millipore 96-well plate with a 0.65 µm polyvinylidine membrane bottom were added the reaction components: 10 µL c-Src beads, 10 µL of 2.5 mg/mL poly GluTyr substrate, 5 µM ATP containing 0.2 µCi labeled ^32P-ATP, 5 µL DMSO containing inhibitors or as a solvent control, and buffer to make the final volume 125 µL. The reaction was started at room temperature by addition of the ATP and quenched 10 minutes later by the addition of 125 µL of 30% TCA, 0.1 M sodium pyrophosphate for 5 minutes on ice. […] The filters were then punched, counted in a liquid scintillation counter, and the data examined for inhibitory activity in comparison to a known inhibitor such as erbstatin. […]

cdk2/cyclinA = cdk2/cyclinA (Homo sapiens, UniProt P24941); experiment: Cyclin-Dependent Kinase Assay cdk2/cyclinA; type: biochemical
Procedure: (§1) Cyclin-Dependent Kinase Assays (cdk2/cyclinE, cdk2/cyclinA, cdc2/cyclinB)
(§2) All components except the ATP were added to the wells, and the plate was placed on a plate mixer for 2 minutes. The reaction was begun by addition of [^32P]ATP, and the plate was incubated at 25°C for 15 minutes. The reaction was terminated by addition of 0.1 mL of 20% TCA. The plate was kept at 4°C for at least 1 hour to allow the substrate to precipitate. The wells were then washed five times with 0.2 mL of 10% TCA and ^32P incorporation determined with a beta plate counter (Wallac Inc., Gaithersburg, MD).

cdc2/cyclinB = cdc2/cyclinB (Homo sapiens, UniProt P06493); experiment: Cyclin-Dependent Kinase Assay cdc2/cyclinB; type: biochemical
Chain of cdc2/cyclinB (P06493 whole entry): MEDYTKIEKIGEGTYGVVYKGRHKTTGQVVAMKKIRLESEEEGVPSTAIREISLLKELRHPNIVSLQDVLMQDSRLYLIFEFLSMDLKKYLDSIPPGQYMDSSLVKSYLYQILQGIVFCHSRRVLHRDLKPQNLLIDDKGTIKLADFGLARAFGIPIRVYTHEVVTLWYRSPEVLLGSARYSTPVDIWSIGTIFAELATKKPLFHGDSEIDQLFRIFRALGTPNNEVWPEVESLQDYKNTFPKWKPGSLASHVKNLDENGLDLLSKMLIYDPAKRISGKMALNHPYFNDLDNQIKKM
Chain of cdc2/cyclinB (P14635 whole entry, further chain): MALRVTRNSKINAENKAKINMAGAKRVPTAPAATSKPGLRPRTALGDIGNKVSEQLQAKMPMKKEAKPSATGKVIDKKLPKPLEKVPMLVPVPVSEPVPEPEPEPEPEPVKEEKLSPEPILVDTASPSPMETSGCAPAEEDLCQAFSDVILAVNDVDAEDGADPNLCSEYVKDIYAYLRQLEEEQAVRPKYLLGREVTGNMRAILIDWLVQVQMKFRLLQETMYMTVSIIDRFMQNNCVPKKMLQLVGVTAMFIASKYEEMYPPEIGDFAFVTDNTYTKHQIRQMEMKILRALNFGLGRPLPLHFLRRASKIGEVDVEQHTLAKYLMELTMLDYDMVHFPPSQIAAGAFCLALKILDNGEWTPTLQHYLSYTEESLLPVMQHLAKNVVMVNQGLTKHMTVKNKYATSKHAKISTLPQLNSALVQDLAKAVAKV
Procedure: as §1, §2

cdk2/cyclinE = cdk2/cyclinE (Homo sapiens, UniProt P24941); experiment: Cyclin-Dependent Kinase Assay cdk2/cyclinE; type: biochemical
Procedure: as §1, §2

[2] = test system: human umbilical vein endothelial cells; experiment: Human Umbilical Vein Endothelial Cell (HUVEC) Proliferation Assay; type: cell-based; conditions: 96 h, four days incubation, Sulphorhodamine B staining
Procedure: The compounds of Formula I are useful for treating cell proliferative disorders concerning angiogenesis and have been evaluated in a human umbilical vein endothelial cell in vitro assay. The assay described below is used to determine the anti-proliferative effects of the invention compounds on human umbilical vein endothelial cells, and the results are shown in Table 7.
Human Umbilical Vein Endothelial Cell (HUVEC) Proliferation Assay
Ninety-six well tissue culture plates are seeded with 100 µL of cells in all wells of rows A->G with row H remaining empty as a blank. HUVEC (Clonetics, San Diego, CA) are grown in endothelial growth medium (EGM media, Clonetics), containing 2% fetal bovine serum. The cell seed density for HUVEC cells is 20,000 per mL. C6 cells (ATCC Cat. No. CCL-107) are seeded at 6000 per mL in F10 medium (nutrient mixture Hemes) supplemented with 15% horse serum, 2.5% fetal bovine serum, and 6.0 mL 200 mM Glutamine per 600 mL medium. A90 cells (Suny, Buffalo, NY) are also seeded at 6000 per mL, but they are grown in RPMI 1640 (Roswell Park Memorial Institute) plus 10% fetal bovine serum. Unless noted otherwise, tissue culture media and components are from GIBCO. The cells are allowed to incubate at 37°C, 5% CO2, and 100% relative humidity for 16-24 hours.
Invention compounds are prepared by dissolving them in DMSO at a concentration of 5 mM, followed by dilution to 50 µM in EGM media. One hundred microliters of the compounds are applied to duplicate wells in column 1 of the previously prepared cell plates. Column 1 row H receives 100 µL of EGM media. The compounds in column 1 are diluted across the plates using serial twofold dilutions.
The plates are incubated as above for an additional four days before being stained with Sulphorhodamine B. Staining is performed as follows: The media is removed from the plates, and the cells are fixed using 10% trichloroacetic acid for 30 minutes at 4°C. Following fixation, the plates are washed five times with distilled water after which 100 µL of Sulphorhodamine B is added to each well. Sulphorhodamine B is dissolved in 1% acetic acid to a concentration of .075%. Following staining, excess stain is removed from the wells, and the plates are washed four times with 1% acetic acid. The plates are allowed to air dry before the bound dye is solubilized in 100 µL of 10 mM unbuffered TRIS base. Absorbance is measured on a 96 well plate reader at […] using a reference filter wavelength of 630 nm. […] Sulphorhodamine B and TRIS are from Sigma Chemical Company. Acetic acid and trichloroacetic acid are from Mallinckrodt AR.

[3] = 25 µM ATP, retinoblastoma substrate, read-out: IC50 (µM) cdk4/D

IC50 [1]: 0.64 µM
IC50 (cdk4/D; [3]): 1.55 µM
IC50 (c-Src): > 50 µM
SMILES: O=C1NCc2cnc(Nc3ccc(N4CCCCC4)cc3)nc2N1C1CCCC1 [Example 10, 1-Cyclopentyl-7-[4-(piperidin-1-yl)phenylamino]-3,4-dihydropyrimido[4,5-d]pyrimidin-2(1H)-one]

SMILES: O=C1NCc2cnc(Nc3ccc(-n4cccc4)cc3)nc2N1C1CCCC1 [Example 14, 1-Cyclopentyl-7-[4-(pyrrol-1-yl)phenylamino]-3,4-dihydropyrimido[4,5-d]pyrimidin-2(1H)-one]
IC50 (cdk4/D): 17.8 µM
IC50 (c-Src): > 50 µM
IC50 (cdk2/cyclinA): 5.1 µM
IC50 (cdc2/cyclinB): > 20 µM

IC50 [1]: 0.05 to 0.5 µM
IC50 (cdk4/D; [3]): 0.7 µM
IC50 (c-Src): 2.4 µM
IC50 (cdk2/cyclinA; retinoblastoma substrate, read-out: IC50 (µM) cdk2/A): 0.6 µM
IC50 (cdk2/cyclinE; retinoblastoma substrate, read-out: IC50 (µM) cdk2/E): 2.2 µM
IC50 (cdc2/cyclinB; retinoblastoma substrate, read-out: IC50 (µM) cdkl/B): 16.8 µM
SMILES: O=C1NCc2cnc(Nc3ccc(N4CCC(O)CC4)cc3)nc2N1C1CCCC1 [Example 15, 1-Cyclopentyl-7-[4-(4-hydroxypiperidin-1-yl)phenylamino]-3,4-dihydropyrimido[4,5-d]pyrimidin-2(1H)-one]

SMILES: O=C1NCc2cnc(Nc3ccc(N4CCCCC4CO)cc3)nc2N1C1CCCC1 (stereo not shown) [Example 19, 1-Cyclopentyl-7-[4-(2-hydroxymethylpiperidin-1-yl)phenylamino]-3,4-dihydro-pyrimido[4,5-d]pyrimidin-2(1H)-one]
IC50 [1]: 0.05 to 0.5 µM
IC50 (cdk4/D): 0.5 µM
IC50 (c-Src): 4.42 µM

SMILES: CC(C)N1C(=O)NCc2cnc(Nc3ccc(N4CCN(C)CC4)cc3)nc21 [Example 22, 1-Isopropyl-7-[4-(4-methylpiperazin-1-yl)phenylamino]-3,4-dihydropyrimido[4,5-d]pyrimidin-2(1H)-one]
IC50 (cdk4/D): 0.34 µM
IC50 (c-Src): 1.51 µM
IC50 (cdk2/cyclinA): 9.31 µM

SMILES: CC(C)n1c(=O)ncc2cnc(Nc3ccc(N4CCN(C)CC4)cc3)nc21 [Example 40, 1-Isopropyl-7-[4-(4-methylpiperazin-1-yl)phenylamino]pyrimido[4,5-d]pyrimidin-2(1H)-one]
IC50 [1]: 1.13 µM
IC50 (c-Src): 4.3 µM
IC50 (cdk2/cyclinA): 4.51 µM
IC50 (cdk2/cyclinE): 16.5 µM

SMILES: CCN(CC)CCCCNc1ncc2c(n1)NC(=O)N(c1cc(OC)cc(OC)c1)C2 [Example 52, 7-(4-Diethylamino-butylamino)-3-(3,5-dimethoxy-phenyl)-3,4-dihydropyrimido[4,5-d]pyrimidin-2(1H)-one]
IC50 [2]: 6.65 µM

SMILES: COc1cc(OC)cc(N2Cc3cnc(NCCNCc4ccncc4)nc3NC2=O)c1 [Example 54, 3-(3,5-Dimethoxy-phenyl)-7-{2-[(pyridin-4-ylmethyl)-amino]-ethylamino}-3,4-dihydro-pyrimido[4,5-d]pyrimidin-2(1H)-one]
IC50 [2]: > 25 µM

SMILES: COc1cc(OC)cc(N2Cc3cnc(NCCCN4CCN(C)CC4)nc3NC2=O)c1 [Example 54a, 3-(3,5-Dimethoxy-phenyl)-7-[3-(4-methyl-piperazin-1-yl)-propylamino]-3,4-dihydro-1H-pyrimido[4,5-d]pyrimidin-2(1H)-one]
IC50 [2]: 5.99 µM

SMILES: COc1cc(OC)cc(N2Cc3cnc(NCCCCN4CCN(C)CC4)nc3NC2=O)c1 [Example 54b, 3-(3,5-Dimethoxy-phenyl)-7-[4-(4-methyl-piperazin-1-yl)-butylamino]-3,4-dihydro-pyrimido[4,5-d]pyrimidin-2(1H)-one]
IC50 [2]: 4.96 µM

SMILES: COc1cc(OC)cc(N2Cc3cnc(NCCCCCN4CCN(C)CC4)nc3NC2=O)c1 [Example 54c, 3-(3,5-Dimethoxy-phenyl)-7-[5-(4-methyl-piperazin-1-yl)-pentylamino]-3,4-dihydro-pyrimido[4,5-d]pyrimidin-2(1H)-one]
IC50 [2]: 5.78 µM

SMILES: CCN(CC)CCCNc1ncc2c(n1)NC(=O)N(c1cc(OC)cc(OC)c1)C2 [Example 55, 7-(3-Diethylamino-propylamino)-3-(3,5-dimethoxy-phenyl)-3,4-dihydropyrimido[4,5-d]pyrimidin-2(1H)-one]
IC50 [2]: > 25 µM

SMILES: CCN1C(=O)N(c2cc(OC)cc(OC)c2)Cc2cnc(NCCNCc3ccncc3)nc21 [Example 56, 3-(3,5-Dimethoxy-phenyl)-1-ethyl-7-{2-[(pyridin-4-ylmethyl)-amino]-ethylamino}-3,4-dihydro-pyrimido[4,5-d]pyrimidin-2(1H)-one]
IC50 [2]: 1.93 µM

SMILES: CCN1C(=O)N(c2cc(OC)cc(OC)c2)Cc2cnc(NCCCN3CCN(C)CC3)nc21 [Example 57, 3-(3,5-Dimethoxy-phenyl)-1-ethyl-7-[3-(4-methyl-piperazin-1-yl)-propylamino]-3,4-dihydro-pyrimido[4,5-d]pyrimidin-2(1H)-one]
IC50 [2]: 0.152 µM

From patent EP1801112A1, “Bicyclic pyrimidines and bicyclic 3,4-dihydropyrimidines as inhibitors of cellular proliferation” (Warner-Lambert Company LLC, priority 1998, dated 1999)
